Reference: BindingDB's records for doi:10.1021/jm00079a024 (Roche Products, 1992)

Target: cAMP-dependent protein kinase catalytic subunit alpha (Bos taurus, UniProt P00517)
Assay: PKA assay
Details: not given

| SMILES | IC50 [µM] |
| --- | --- |
| Cc1cccc(C2=C(c3cn(C)c4ccccc34)C(=O)NC2=O)c1 [3-(1-methyl-1H-indol-3-yl)-4-(3-methylphenyl)-2,5-dihydro-1H-pyrrole-2,5-dione] | > 100 |
| Cn1cc(C2=C(c3cccc(N)c3)C(=O)NC2=O)c2ccccc21 [3-(3-aminophenyl)-4-(1-methyl-1H-indol-3-yl)-2,5-dihydro-1H-pyrrole-2,5-dione] | > 100 |
| Cn1cc(C2=C(c3cccc(Cl)c3)C(=O)NC2=O)c2ccccc21 [3-(3-chlorophenyl)-4-(1-methyl-1H-indol-3-yl)-2,5-dihydro-1H-pyrrole-2,5-dione] | > 100 |
| Cn1cc(C2=C(c3cn(C)c4cccc([N+](=O)[O-])c34)C(=O)NC2=O)c2ccccc21 [3-(1-methyl-1H-indol-3-yl)-4-(1-methyl-4-nitro-1H-indol-3-yl)-2,5-dihydro-1H-pyrrole-2,5-dione] | > 100 |
| Cn1cc(C2=C(c3cc(Cl)cc(Cl)c3)C(=O)NC2=O)c2ccccc21 [3-(3,5-dichlorophenyl)-4-(1-methyl-1H-indol-3-yl)-2,5-dihydro-1H-pyrrole-2,5-dione] | > 100 |

Further lines, results first:

| IC50 [µM] | SMILES |
| --- | --- |
| > 100 | Cn1cc(C2=C(c3ccccc3)C(=O)NC2=O)c2ccccc21 [3-(1-methyl-1H-indol-3-yl)-4-phenyl-2,5-dihydro-1H-pyrrole-2,5-dione] |
| > 100 | Cn1cc(C2=C(c3csc4ccccc34)C(=O)NC2=O)c2ccccc21 [3-(1-benzothiophen-3-yl)-4-(1-methyl-1H-indol-3-yl)-2,5-dihydro-1H-pyrrole-2,5-dione] |

Same assay, conditions: pH 8.5; 37 °C

| SMILES | IC50 [µM] |
| --- | --- |
| Cn1cc(C2=C(c3cn(Cc4ccccc4)c4ccccc34)C(=O)NC2=O)c2ccccc21 [3-(1-benzyl-1H-indol-3-yl)-4-(1-methyl-1H-indol-3-yl)-2,5-dihydro-1H-pyrrole-2,5-dione] | > 100 |

Target: Protein kinase C beta type (Rattus norvegicus, UniProt P68403)
Sequence (P68403 whole entry): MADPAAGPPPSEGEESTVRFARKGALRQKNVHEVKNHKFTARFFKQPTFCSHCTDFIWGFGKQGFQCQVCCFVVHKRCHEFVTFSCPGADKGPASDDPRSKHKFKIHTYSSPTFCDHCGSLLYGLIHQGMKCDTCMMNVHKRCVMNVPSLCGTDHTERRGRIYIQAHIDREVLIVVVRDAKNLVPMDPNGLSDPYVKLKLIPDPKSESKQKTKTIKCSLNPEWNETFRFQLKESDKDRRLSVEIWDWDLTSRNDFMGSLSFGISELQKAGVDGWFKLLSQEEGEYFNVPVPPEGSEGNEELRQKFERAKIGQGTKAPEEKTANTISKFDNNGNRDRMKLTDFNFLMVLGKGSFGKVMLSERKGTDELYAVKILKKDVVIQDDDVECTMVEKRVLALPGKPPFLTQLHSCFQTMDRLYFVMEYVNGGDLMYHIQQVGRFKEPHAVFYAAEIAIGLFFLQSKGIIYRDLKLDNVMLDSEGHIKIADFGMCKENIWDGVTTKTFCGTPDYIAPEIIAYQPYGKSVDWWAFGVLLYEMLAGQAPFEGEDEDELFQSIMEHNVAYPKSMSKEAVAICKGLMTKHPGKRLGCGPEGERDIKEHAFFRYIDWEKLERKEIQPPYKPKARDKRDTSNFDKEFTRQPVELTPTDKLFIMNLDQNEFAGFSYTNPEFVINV
Assay: PKC assay
Details: not given

| SMILES | IC50 [µM] |
| --- | --- |
| Cn1cc(C2=C(c3ccc(S(C)(=O)=O)cc3)C(=O)NC2=O)c2ccccc21 [3-(4-methanesulfonylphenyl)-4-(1-methyl-1H-indol-3-yl)-2,5-dihydro-1H-pyrrole-2,5-dione] | > 100 |
| Cn1cc(C2=C(c3cccc(Oc4ccccc4)c3)C(=O)NC2=O)c2ccccc21 [3-(1-methyl-1H-indol-3-yl)-4-(3-phenoxyphenyl)-2,5-dihydro-1H-pyrrole-2,5-dione] | > 100 |
| Cn1cc(C2=C(c3cn(C)c4ccc(C(=O)O)cc34)C(=O)NC2=O)c2ccccc21 [1-methyl-3-[4-(1-methyl-1H-indol-3-yl)-2,5-dioxo-2,5-dihydro-1H-pyrrol-3-yl]-1H-indole-5-carboxylic acid] | > 50 |

The next lines start with the values.

| IC50 [µM] | SMILES |
| --- | --- |
| > 50 | CSc1ccc(C2=C(c3cn(C)c4ccccc34)C(=O)NC2=O)cc1 [3-(1-methyl-1H-indol-3-yl)-4-[4-(methylsulfanyl)phenyl]-2,5-dihydro-1H-pyrrole-2,5-dione] |
| > 100 | Cn1cc(C2=C(c3ccc(Cl)cc3)C(=O)NC2=O)c2ccccc21 [3-(4-chlorophenyl)-4-(1-methyl-1H-indol-3-yl)-2,5-dihydro-1H-pyrrole-2,5-dione] |

Same assay, conditions: pH 7.5; 30 °C

| SMILES | IC50 [µM] |
| --- | --- |
| Cn1cc(C2=C(c3cc4ccccc4n3C)C(=O)NC2=O)c2ccccc21 [3-(1-methyl-1H-indol-2-yl)-4-(1-methyl-1H-indol-3-yl)-2,5-dihydro-1H-pyrrole-2,5-dione] | > 100 |
| O=C1OC(=O)C(c2c[nH]c3ccccc23)=C1c1c[nH]c2ccccc12 [3,4-bis(1H-indol-3-yl)-2,5-dihydrofuran-2,5-dione] | > 100 |
| O=C1NC(=O)[C@@H](c2c[nH]c3ccccc23)[C@H]1c1c[nH]c2ccccc12 [(3R,4S)-3,4-bis(1H-indol-3-yl)pyrrolidine-2,5-dione] | > 100 |
| O=C1NC(=O)[C@@H](c2c[nH]c3ccccc23)[C@@H]1c1c[nH]c2ccccc12 [(3R,4R)-3,4-bis(1H-indol-3-yl)pyrrolidine-2,5-dione] | > 100 |
| CN1C(=O)C(c2c[nH]c3ccccc23)=C(c2c[nH]c3ccccc23)C1=O | > 100 |
